Data on one compound can be found in patent EP0082266A1, “Substituted 1,5-diaminopentanes, their preparation and pharmaceutical compositions containing them” (BASF Aktiengesellschaft, priority 1981, dated 1983).

Series [1] has as its system Aconitinarrhythmie der Ratte. Nature of the series: Antiarrhythmic activity, aconitine-induced arrhythmia in the anaesthetised rat (oral dosing, aconitine i.v. infusion 60 min later). Type of series: in vivo, Ratten (Stamm: Sprague Dawley). As for the experimental part: Zur Bestimmung der antiarrhythmischen Wirksamkeit werden die Substanzen Ratten (Stamm: Sprague Dawley, Gewicht 200 bis 250 g) oral appliziert. 45 min später werden die Tiere mit Thiobutabarbital-Natrium (100,0 mg/kg i.p.) narkotisiert. Als arrhythmogene Substanz dient Aconitin, das 60 min nach Substanzapplikation i.v. infundiert wird (Dosierungsgeschwindigkeit: 0,005 mg/kg x min). Bei nicht behandelten Tieren (N = 52) treten nach 2,74 + 0,07 min im EKG Arrhythmien auf, deren Eintritt durch Antiarrhythmika dosisabhängig verzögert werden kann.
Aus den linearen Beziehungen zwischen log Dosis (mg/kg) der Prüfsubstanzen und der relativen Verlängerung der Aconitin--Infusionsdauer (Δ%) wird die Dosis bestimmt, welche die Infusionsdauer um 50 % verlängert (ED 50 %).
(§1) Zur weiteren Charakterisierung der Substanzen wird aus der in den Experimenten verwendeten dezimalgeometrischen Dosenfolge (Faktor [formula] ) die antiarrhythmische Wirkung der maximal tolerierten Dosis bestimmt.

Series [2] is described as follows: Acute toxicity / tolerability in the rat after oral dosing (toxic symptoms: changes of baseline ECG, cyanosis, convulsions). As to conditions: in vivo, po. Format: in vivo.
Text: as §1
(§2) Ferner wird die Dosis ermittelt, bei welcher toxische Symptome (Veränderungen des Ausgangs-EKG, Cyanose, Krämpfe) auftreten.

For the next series, the system named is Ratte. Described as above. Type of series: in vivo. The following applies: per os, dose after which the first toxic symptoms are observed.
Text: as §1, §2

Where a name gives a salt, the structure may show the parent alone.

With `CNCC(CCCN(C)CCc1ccccc1)(c1ccccc1)C(C)C` (stereo not drawn) [Beispiel 30, 1-Methylamino-2-isopropyl-2-phenyl-5-(phenethyl)methyl-amino-pentan-dihydrochlorid], the ED50 in series [1] (Rattus norvegicus, po, 1 h, read-out: Wirksame Dosis ED 50 %) turned out to be 11 mg/kg. For the same compound, in series [1] (rat, per os, effect of the maximal tolerated dose), the “Maximale Wirkung Δ % (Verlängerung der Aconitinfusionsdauer)” value was 499%. In addition, the “R.W. = Relative Wirksamkeit, bezogen auf Chinidin = 1,00” value in series [1] (rat, per os, relative potency from ED 50 %, Chinidin = 1,00) is recorded as 3,96. For the same compound, the MTD in series [2] (per os, highest tolerated dose, at which the maximal effect was read, read-out: Maximale Wirkung Dosis (maximal tolerierte Dosis)) turned out to be 215 mg/kg. For the same compound, the selectivity ratio in series [2] (read-out: Q = Toxische Dosis / ED 50 %) worked out at 42. In addition, the “Toxizität Dosis” value in the series with Ratte was 464 mg/kg.
